This passage reports CC50 results from publication PMC6792352, “Limited Chemical Structural Diversity Found to Modulate Thyroid Hormone Receptor in the Tox21 Chemical Library” (Environmental Health Perspectives, 2019).

The CC50 is the concentration at which the toxic effect on the cells reaches its halfway point.

The structures appear in SMILES notation. Where a name gives a salt, the structure may show the parent alone.

The data set is described as follows: in vitro. Conditions: rat, gh3-tre-luc cells.

In the case of `CO[C@@H]1COCC[C@@H]1N[C@@H]1CC[C@@](C(=O)N2CCc3ncc(C(F)(F)F)cc3C2)(C(C)C)C1` [MK-812], the CC50 at 24 h (AC50 (uM) modified / 1000) was over 90 µM.
The compound `CCCCNC(=O)n1c(NC(=O)OC)nc2ccccc21` [Benomyl] gave a cytotoxic concentration (CC50) at 24 h (AC50 (uM) modified / 1000) of over 90 µM.
The same measure, in the same setting: the figure for `O=C1C(O)=C(O)C(=O)C(O)=C1O` [Tetroquinone] is over 50 µM; for `Nc1cc2c3c(c1)C(c1ccccc1)=N[C@@H](NC(=O)c1cccnc1)C(=O)N3CC2` [CI-1044] it is over 90 µM.
Same read-out and setting: to `Cc1nnc2n1-c1sc(CCC(=O)N3CCOCC3)cc1C(c1ccccc1Cl)=NC2` [Apafant] belongs over 50 µM.
In the case of `CC(C)(Cc1c[nH]c2ccccc12)NCC(O)COc1ccccc1C#N` (stereo not drawn) [Bucindolol], the half-maximal cytotoxic concentration (CC50) at 24 h (AC50 (uM) modified / 1000) was found to be 20.5 µM.
Still for that read-out and setting: to `CN1CCCN(C(c2ccccc2)c2ccc(Cl)cc2)CC1` (stereo not drawn) [Homochlorcyclizine] belongs 7.44 µM; to `CC1(C)[C@H](C=C(Cl)Cl)[C@H]1C(=O)O[C@H](C#N)c1cccc(Oc2ccccc2)c1` [Cypermethrin], over 50 µM.
With `O=C(O)CC(Cl)C(=O)O` (stereo not drawn) [Chlorobutanedioic acid], the 50% cytotoxic concentration (CC50) at 24 h (AC50 (uM) modified / 1000) was over 90 µM.
Compound `c1ccc2c(c1)Oc1ccccc1S2` [Phenoxathiin] returned a CC50 at 24 h (AC50 (uM) modified / 1000) of over 90 µM.
Same read-out and setting: the figure for `CCOC(=O)[N-]c1cn(N2CCOCC2)n[o+]1` [Molsidomine] is over 20 µM; for `CC(CCc1ccc(O)cc1)NCC(O)c1ccc(O)cc1` (stereo not drawn) [Ractopamine hydrochloride] it is over 50 µM.
On to `O=C(NCCN1CCOCC1)c1ccc(Cl)cc1` [Moclobemide], for which the cytotoxic concentration (CC50) at 24 h (AC50 (uM) modified / 1000) is over 50 µM.
In the case of `CC(=O)OC1(c2ccccc2)CCN(CCc2ccccc2)CC1` [1-(2-Phenylethyl)-4-phenyl-4-acetoxypiperidine], the CC50 at 24 h (AC50 (uM) modified / 1000, Tox21_110001=Tox21_112833, viability, 1 nM T3 present, 24 h) turned out to be 84.5 µM.
In turn, `COC(=O)/C=C(\C)CCC=C(C)C` [Methyl geranate] yielded a CC50 at 24 h (AC50 (uM) modified / 1000) of over 90 µM.
Still for that read-out and setting: the figure for `CCC(=O)OC(=O)CC` [Propanoic anhydride] is over 90 µM.
Still for that read-out and setting: to `C=CCCC(=O)/C=C/C1C(C)=CCCC1(C)C` (stereo not drawn) [Allyl Ionone] belongs 80.7 µM; to `O=c1c2ccccc2[se]n1-c1ccccc1` [Ebselen], 19.6 µM.
Same read-out and setting: the figure for `CCCCOc1ccc(N)cc1` [4-Butyloxyaniline] is over 90 µM.
The compound `CCCCNc1cc(C(=O)O)cc(S(N)(=O)=O)c1Oc1ccccc1` [Bumetanide] came in with a 50% cytotoxic concentration (CC50) at 24 h (AC50 (uM) modified / 1000) of over 20 µM.
With `Cc1cccc(N(C)C(=S)Oc2ccc3c(c2)CCC3)c1` [Tolindate], the CC50 at 24 h (AC50 (uM) modified / 1000) is over 50 µM.
The same measure, in the same setting: to `IC(I)=C(I)I` [Tetraiodoethene] belongs 8.53 µM.
For the setting “AC50 (uM) modified / 1000, Tox21_110001=Tox21_201946, viability, 1 nM T3 present, 24 h”, `CCOc1ccc(N)cc1` [4-Ethoxyaniline] came in with a CC50 at 24 h of over 90 µM.
As for `CCC1(c2ccccc2)C(=O)NC(=O)NC1=O` [Phenobarbital], for the setting “AC50 (uM) modified / 1000”, the 50% cytotoxic concentration (CC50) at 24 h is over 90 µM.
Still for that read-out and setting: to `CC(C)C(=O)OCC(C)(C)C(OC(=O)C(C)C)C(C)C` (stereo not drawn) [2,2,4-Trimethyl-1,3-pentanediol diisobutyrate] belongs over 90 µM.
`Nc1ccc(-c2ccc(F)cc2)cc1` [4'-Fluoro-4-aminodiphenyl] had a half-maximal cytotoxic concentration (CC50) at 24 h (AC50 (uM) modified / 1000) of over 90 µM.
With `CCCC1O[C@@H]2C[C@H]3[C@@H]4CCC5=CC(=O)C=C[C@]5(C)[C@H]4[C@@H](O)C[C@]3(C)[C@]2(C(=O)CO)O1` (stereo partly drawn) [Budesonide], the CC50 at 24 h (AC50 (uM) modified / 1000) was over 90 µM.
Compound `CCC(C)(C)c1cc(O)c(C(C)(C)CC)cc1O` [2,5-Bis(2-methylbutan-2-yl)benzene-1,4-diol] gave a half-maximal cytotoxic concentration (CC50) at 24 h (AC50 (uM) modified / 1000) of 53.8 µM.
Consider `Oc1cc(Cl)c(Cl)c(Cl)c1Cl` [2,3,4,5-Tetrachlorophenol], for which the CC50 at 24 h (AC50 (uM) modified / 1000, Tox21_110001=Tox21_200105, viability, 1 nM T3 present, 24 h) is 29.2 µM.
In the case of `N#CNC#N` [Cyanamide,cyano-,sodium salt], under “AC50 (uM) modified / 1000, Tox21_110001=Tox21_202811, viability, 1 nM T3 present, 24 h”, the CC50 at 24 h is over 90 µM.
`CCCCCCCOC(C)=O` [Heptyl acetate] had a 50% cytotoxic concentration (CC50) at 24 h (AC50 (uM) modified / 1000) of over 90 µM.
In the case of `O=C1CCCCCCCCCCCCCC1` [Cyclopentadecanone], it took 60.9 µM to reach half-maximal cytotoxicity (AC50 (uM) modified / 1000) (CC50 at 24 h).
Regarding `N#CCCOCCOCCC#N` [3,3'-(Ethylenedioxy)dipropiononitrile], the CC50 at 24 h (AC50 (uM) modified / 1000) is over 90 µM.
For the setting “AC50 (uM) modified / 1000”, `CCCCCCCCCCCCCCCCBr` [1-Bromohexadecane] came in with a CC50 at 24 h of over 30 µM.
As to `CCN[C@H](C)Cc1cccc(C(F)(F)F)c1` [(-)-Fenfluramine hydrochloride], the CC50 at 24 h (AC50 (uM) modified / 1000, Tox21_110001=Tox21_112865, viability, 1 nM T3 present, 24 h) is 52.7 µM.
In turn, `CCCCC(CC)COC(=O)CS` (stereo not drawn) [2-Ethylhexyl sulfanylacetate] returned a CC50 at 24 h (AC50 (uM) modified / 1000) of over 90 µM.
The same measure, in the same setting: the figure for `CC(C)[C@@H]1CC[C@@H](C)CC1=O` [(2S,5R)-5-Methyl-2-(propan-2-yl)cyclohexanone] is over 90 µM; for `CCCCC(CC)COC(=O)c1ccccc1C(=O)O` (stereo not drawn) [MEHP] it is over 90 µM; for `CCC(C)COC(C)=O` (stereo not drawn) [2-Methylbutyl acetate] it is over 90 µM.
In the case of `CCOC(=O)CC(SP(=O)(OC)OC)C(=O)OCC` (stereo not drawn) [Malaoxon], the CC50 at 24 h (AC50 (uM) modified / 1000, Tox21_110001=Tox21_202017, viability, 1 nM T3 present, 24 h) was over 90 µM.
For the setting “AC50 (uM) modified / 1000”, `CC(Oc1cc(Cl)ccc1Cl)C(=O)O` (stereo not drawn) [alpha-(2,5-Dichlorophenoxy)propionic acid] showed a CC50 at 24 h of over 90 µM.
Same read-out and setting: to `O=P(O)(OCc1ccccc1)OCc1ccccc1` [Dibenzyl phosphate] belongs over 90 µM.
For the compound `CN1CCN(c2ccccc2/C=C2\SCCN(c3ccc(Cl)c(Cl)c3)C2=O)CC1` [Elzasonan], it took 8.33 µM to reach half-maximal cytotoxicity (AC50 (uM) modified / 1000) (CC50 at 24 h).
Compound `CCCCCBr` [1-Bromopentane] yielded a CC50 at 24 h (AC50 (uM) modified / 1000) of over 100 µM.
Same read-out and setting: to `CCCCNc1ccc(C(=O)OCCN(CC)CC)cc1` [Depolipon] belongs over 50 µM.
`CC1(C)S[C@@H]2[C@H](NC(=O)[C@H](N)c3ccccc3)C(=O)N2[C@H]1C(=O)OC1OC(=O)c2ccccc21` (stereo partly drawn) [Talampicillin hydrochloride] came in with a CC50 at 24 h (AC50 (uM) modified / 1000) of over 20 µM.
Compound `CNC(=O)Oc1cc(C)cc(C(C)C)c1` [Promecarb] gave a CC50 at 24 h (AC50 (uM) modified / 1000, Tox21_110001=Tox21_301424, viability, 1 nM T3 present, 24 h) of over 90 µM.
With `OC(c1ccc(Cl)cc1)(c1ccc(Cl)cc1)C(Cl)(Cl)Cl` [Dicofol], the CC50 at 24 h (AC50 (uM) modified / 1000) turned out to be 79.5 µM.
Same read-out and setting: to `O=C(O)CP(=O)(O)O` [Phosphonoacetic acid] belongs over 50 µM; to `C=C(C)C(=O)OC(C)C` [Isopropyl methacrylate], over 90 µM; to `CCCCN(CCCC)CCCOC(=O)c1ccc(N)cc1` [Butacaine], over 20 µM.
Still for that read-out and setting: to `O=C1Nc2ccccc2C1(c1ccc(O)cc1)c1ccc(O)cc1` [Oxyphenisatin] belongs 61.2 µM; to `OC(CCN1CCCC1)(c1ccccc1)C1CCCCC1` (stereo not drawn) [Procyclidine hydrochloride], 10.6 µM; to `Cc1nc2c([nH]1)c(=O)n(C)c(=O)n2Cc1ccco1` [Furafylline], over 50 µM.
Same read-out and setting: to `Cc1ccc2oc(=O)ccc2c1` [6-Methyl coumarin] belongs over 90 µM.
With `CCCCCCCCCl` [1-Chlorooctane], the cytotoxic concentration (CC50) at 24 h (AC50 (uM) modified / 1000, Tox21_110001=Tox21_201715, viability, 1 nM T3 present, 24 h) is over 90 µM.
As to `O=C(O)[C@H](O)c1ccccc1` [D-(-)-Mandelic acid], the CC50 at 24 h (AC50 (uM) modified / 1000) is over 50 µM.
Still for that read-out and setting: to `CC1CC(=O)O1` (stereo not drawn) [beta-Butyrolactone] belongs over 100 µM; to `CC/C=C\CCOC(=O)CC` [(3Z)-Hex-3-en-1-yl propanoate], over 90 µM; to `O=c1cccccc1O` [Tropolone], 22.1 µM.
In the case of `CCCN(CCC)C(=O)C(CCC(=O)OCCCN1CCN(CCOC(=O)Cc2c(C)n(C(=O)c3ccc(Cl)cc3)c3ccc(OC)cc23)CC1)NC(=O)c1ccccc1` (stereo not drawn) [Proglumetacin], under “AC50 (uM) modified / 1000”, the CC50 at 24 h turned out to be 10.5 µM.
The same measure, in the same setting: to `CC1=C(CC(=O)O)c2cc(F)ccc2/C1=C\c1ccc(S(C)(=O)=O)cc1` [Sulindac sulfone] belongs over 50 µM; to `Cc1cccc(C)c1NC(=O)CN(CC(=O)O)CC(=O)O` [Lidofenin], over 50 µM.
In the case of `CCCC(=O)O[C@]1(C(=O)COC(C)=O)CC[C@H]2[C@@H]3C[C@H](F)C4=CC(=O)C=C[C@]4(C)[C@@]3(F)[C@@H](O)C[C@@]21C` [Difluprednate], the CC50 at 24 h (AC50 (uM) modified / 1000) was over 50 µM.
Same read-out and setting: to `O=C(O)c1cccc(C[C@@H]2COc3ccc(OCc4nc5cc(F)ccc5s4)cc3[C@@H]2O)c1` [CP-085958] belongs over 90 µM.
Consider `C[N+]1(C)[C@@H]2C[C@@H](OC(=O)C(O)(c3cccs3)c3cccs3)C[C@H]1[C@@H]1O[C@@H]12` [Tiotropium bromide], for which the CC50 at 24 h (AC50 (uM) modified / 1000) is over 50 µM.
In turn, `CC1CCC(C(C)(C)S)C(=O)C1` (stereo not drawn) [p-Mentha-8-thiol-3-one] displayed a 50% cytotoxic concentration (CC50) at 24 h (AC50 (uM) modified / 1000) of over 90 µM.
As to `CCCCCCCCC(CCCCCC)C(=O)O` (stereo not drawn) [2-Hexyldecanoic acid], for the setting “AC50 (uM) modified / 1000”, the CC50 at 24 h is over 90 µM.
For the setting “AC50 (uM) modified / 1000”, `Nc1nc(=O)[nH]cc1F` [Flucytosine] displayed a half-maximal cytotoxic concentration (CC50) at 24 h of over 20 µM.
Turning to `CCOC(=O)Nc1cccc(OC(=O)Nc2ccccc2)c1` [Desmedipham], the CC50 at 24 h (AC50 (uM) modified / 1000, Tox21_110001=Tox21_301854, viability, 1 nM T3 present, 24 h) is over 90 µM.
Consider `CCC1(c2ccc(N)cc2)CCC(=O)NC1=O` (stereo not drawn) [Aminoglutethimide], for which, under “AC50 (uM) modified / 1000”, the CC50 at 24 h was over 50 µM.
As for `O=Cc1ccco1` [Furfural], the half-maximal cytotoxic concentration (CC50) at 24 h (AC50 (uM) modified / 1000) was over 90 µM.
`NC(=S)Nc1cccc2ccccc12` [1-(1-Naphthyl)-2-thiourea] had a CC50 at 24 h (AC50 (uM) modified / 1000, Tox21_110001=Tox21_203002, viability, 1 nM T3 present, 24 h) of over 5 µM.
Where the note is “AC50 (uM) modified / 1000”, `COc1ccc2[nH]cc(CCNC(C)=O)c2c1` [Melatonin] came in with a CC50 at 24 h of over 90 µM.
On the same count and under the same terms, the figure for `C=CC(N)CCC(=O)O` (stereo not drawn) [Vigabatrin] is over 50 µM.
